Results: patent publication US6693108B2, “Inhibitors of c-JUN N terminal kinases (JNK) and other protein kinases” (Vertex Pharmaceuticals Incorporated, priority 1999, dated 2004)

Biological target: T1, activated JNK3 (Homo sapiens, UniProt P53779)
T1 construct: One such construct encodes amino acid residues Ser40-Glu402 of JNK3α1 and is preceded by Met and Gly residues; Met-Gly (initiation Met plus Gly added to create the NcoI site) (N); made in house; host or cells: E. coli BL21 (DE3)
Experiment: JNK3 inhibition, spectrophotometric coupled-enzyme assay
Assay type: biochemical
Settings: read-out: Activity in the JNK3 Inhibition Assay (Ki rating)
Excerpt: A BLAST search of the EST database using the published JNK3α1 cDNA as a query identified an EST clone (#632588) that contained the entire coding sequence for human JNK3α1. Polymerase chain reactions (PCR) using pfu polymerase (Strategene) were used to introduce restriction sites into the cDNA for cloning into the pET-15B expression vector at the NcoI and BamHI sites. The protein was expressed in E. coli. […] This truncation corresponds to Ser 2 of JNK1 and JNK2 proteins, and is preceded by a methionine (initiation) and a glycine residue. The glycine residue was added in order to introduce an NcoI site for cloning into the expression vector. In addition, systematic C-terminal truncations were performed by PCR to identify a construct that give rise to diffraction-quality crystals.
5 mg of JNK3 was diluted to 0.5 mg/ml in 50 mM HEPES buffer, pH 7.5, containing 100 mM NaCl, 5 mM DTT, 20 mM MgCl2 and 1 mM ATP. GST-MKK7(DD) was added at a molar ratio of 1:2.5 GST-MKK7:JNK3. After incubation for 30 minutes at 25° C., the reaction mixture was concentrated 5-fold by ultrafiltration in a Centriprep-30 (Amicon, Beverly, Mass.), diluted to 10 ml and an additional 1 mM ATP added. This procedure was repeated three times to remove ADP and replenish ATP. The final addition of ATP was 5 mM and the mixture incubated overnight at 4° C.
The activated JNK3/GST-MKK7(DD) reaction mixture was exchanged into 50 mM HEPES buffer, pH 7.5, containing 5 mM DTT and 5% glycerol (w/v) by dialysis or ultrafiltration. The reaction mixture was adjusted to 1.1 M potassium phosphate, pH 7.5, and purified by hydrophobic interaction chromatography (at 25° C.) using a Rainin Hydropore column. […] Activated JNK3 (i.e. doubly phosphorylated JNK3) was stored at −70° C. at 0.25-1 mg/ml.
Compounds were assayed for the inhibition of JNK3 by a spectrophotometric coupled-enzyme assay. In this assay, a fixed concentration of activated JNK3 (10 nM) was incubated with various concentrations of a potential inhibitor dissolved in DMSO for 10 minutes at 30° C. in a buffer containing 0.1 M HEPES buffer, pH 7.5, containing 10 mM MgCl2, 2.5 mM phosphoenolpyruvate, 200 μM NADH, 150 μg/mL pyruvate kinase, 50 μg/mL lactate dehydrogenase, and 200 μM EGF receptor peptide. […] The reaction was initiated by the addition of 10 μM ATP and the assay plate is inserted into the spectrophotometer's assay plate compartment that was maintained at 30° C. The decrease of absorbance at 340 nm was monitored as a function of time. The rate data as a function of inhibitor concentration was fitted to competitive inhibition kinetic model to determine the Ki.

T1 sequence (P53779 40-402): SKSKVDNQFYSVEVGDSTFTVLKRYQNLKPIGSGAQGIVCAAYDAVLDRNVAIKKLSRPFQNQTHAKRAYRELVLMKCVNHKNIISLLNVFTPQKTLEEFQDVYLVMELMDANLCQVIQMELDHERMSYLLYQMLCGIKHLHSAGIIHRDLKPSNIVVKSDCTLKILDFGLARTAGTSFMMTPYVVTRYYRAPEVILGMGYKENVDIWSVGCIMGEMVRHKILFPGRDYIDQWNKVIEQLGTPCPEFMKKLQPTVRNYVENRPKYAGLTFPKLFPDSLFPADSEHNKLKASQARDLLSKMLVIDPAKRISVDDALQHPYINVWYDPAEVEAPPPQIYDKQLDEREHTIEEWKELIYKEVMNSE

Compound | Ki
COc1cccc(C(=O)Nc2nccc(-c3c(-c4cccc(C#N)c4)noc3C)n2)c1 [IIIA-39] | > 1 µM
Cc1onc(-c2ccccc2)c1-c1ccnc(NC2CCNCC2)n1 [IIAA-32] | 0.1 to 1 µM
Cc1cccc(C(=O)Nc2nccc(-c3c(-c4c(F)cccc4F)noc3C)n2)c1 [IIIA-67] | 0.1 to 1 µM
Cc1onc(-c2ccccc2F)c1-c1ccnc(NC(=O)c2ccc3ccccc3c2)n1 [IIIA-63] | 0.1 to 1 µM
Cc1onc(-c2c(F)cccc2F)c1-c1ccnc(NC(=O)c2cccc(Cl)c2)n1 [IIIA-64] | 0.1 to 1 µM
Cc1onc(-c2cccc(F)c2)c1-c1ccnc(NC(=O)c2ccc3ccccc3c2)n1 [IIIA-53] | 0.1 to 1 µM
Cc1onc(-c2ccccc2)c1-c1ccnc(Nc2cccc(CCC(=O)N[C@@H](C(=O)OC(C)(C)C)C(C)C)c2)c1 [IIA-135] | 0.1 to 1 µM
Cc1onc(-c2ccccc2)c1-c1ccnc(NC(=O)CC(C)C)n1 [XA-4] | 0.1 to 1 µM
COc1cccc(C(=O)Nc2nccc(-c3c(-c4cccc([N+](=O)[O-])c4)noc3C)n2)c1 [IIIA-35] | > 1 µM
Cc1onc(-c2c(F)cccc2Cl)c1-c1ccnc(Nc2ccccc2)n1 [IIA-75] | 0.1 to 1 µM
CC(=O)Nc1cccc(C(=O)Nc2nccc(-c3c(-c4ccccc4)noc3C)n2)c1 [IIIA-75] | 0.1 to 1 µM
Cc1onc(-c2ccccc2F)c1-c1ccnc(NC(=O)c2cccc(Cl)c2)n1 [IIIA-54] | 0.1 to 1 µM
Cc1cccc(C(=O)Nc2nccc(-c3c(-c4ccccc4)noc3C)n2)c1 [IIIA-6] | 0.1 to 1 µM
COc1ccc(C(=O)Nc2nccc(-c3c(-c4ccccc4)noc3C)n2)c(OC)c1 [IIIA-9] | > 1 µM
CCCC(=O)Nc1nccc(-c2c(-c3ccccc3)noc2C)n1 [XA-5] | 0.1 to 1 µM
Cc1onc(-c2ccccc2)c1-c1ccnc(Nc2ccc3ccccc3c2)n1 [IIAA-4] | 0.1 to 1 µM
Cc1onc(-c2ccccc2)c1-c1ccnc(NC(=O)c2ccc(C#N)cc2)n1 [IIIA-11] | 0.1 to 1 µM
Cc1onc(-c2c(F)cccc2F)c1-c1ccnc(NC(=O)c2ccc3ccccc3c2)n1 [IIIA-73] | 0.1 to 1 µM
Cc1onc(-c2ccccc2C(F)(F)F)c1-c1ccnc(Nc2ccc(C#N)c(F)c2)n1 [IIA-110] | > 1 µM

Compound | Ki
COc1cc(C(=O)Nc2nccc(-c3c(-c4ccccc4C(F)(F)F)noc3C)n2)cc(OC)c1OC [IIIA-22] | > 1 µM
CC(=O)Nc1nccc(-c2c(-c3ccccc3)noc2C)n1 [XA-1] | 0.1 to 1 µM
COc1ccc2ccccc2c1Nc1nccc(-c2c(-c3ccccc3)noc2C)n1 [IIAA-17] | > 1 µM
Cc1noc(C)c1-c1ccnc(Nc2ccccc2)n1 [IIA-86] | > 1 µM
Cc1onc(-c2ccccc2Cl)c1-c1ccnc(Nc2ccccc2)n1 [IIA-76] | 0.1 to 1 µM
Cc1ccc2cc(Nc3nccc(-c4c(-c5cccc(C#N)c5)noc4C)n3)ccc2n1 [IIAA-23] | 0.1 to 1 µM
Cc1onc(-c2ccccc2)c1-c1ccnc(NCC2CCCO2)n1 (stereo not drawn) [IIAA-29] | 0.1 to 1 µM
COC(=O)c1cccc(Nc2nccc(-c3c(-c4cccc(C#N)c4)noc3C)n2)c1 [IIA-129] | 0.1 to 1 µM
COc1cccc(C(=O)Nc2nccc(-c3c(-c4ccccc4C(F)(F)F)noc3C)n2)c1 [IIIA-23] | > 1 µM
COc1cc(OC)cc(C(=O)Nc2nccc(-c3c(-c4ccccc4F)noc3C)n2)c1 [IIIA-56] | 0.1 to 1 µM
Cc1onc(-c2ccccc2C(F)(F)F)c1-c1ccnc(Nc2ccccc2)n1 [IIA-112] | > 1 µM
Cc1onc(-c2c(Cl)cccc2Cl)c1-c1ccnc(Nc2ccccc2)n1 [IIA-84] | 0.1 to 1 µM
COc1cccc(C(=O)Nc2nccc(-c3c(-c4ccccc4C)noc3C)n2)c1 [IIIA-19] | 0.1 to 1 µM
Cc1onc(-c2cc(F)ccc2F)c1-c1ccnc(Nc2ccccc2)n1 [IIA-74] | 0.1 to 1 µM
Cc1onc(-c2ccccc2)c1-c1ccnc(NC(=O)c2ccc(F)cc2)n1 [IIIA-14] | 0.1 to 1 µM
COc1ccc(C(=O)Nc2nccc(-c3c(-c4ccccc4C)noc3C)n2)cc1 [IIIA-20] | 0.1 to 1 µM
COc1ccc(-c2noc(C)c2-c2ccnc(Nc3ccccc3)n2)c(OC)c1 [IIA-13] | > 1 µM
COc1ccc(C(=O)Nc2nccc(-c3c(-c4ccccc4)noc3C)n2)cc1 [IIIA-7] | 0.1 to 1 µM

Further lines, results first:

Ki | Compound
0.1 to 1 µM | Cc1cccc(C(=O)Nc2nccc(-c3c(-c4ccccc4F)noc3C)n2)c1 [IIIA-57]
0.1 to 1 µM | Cc1onc(-c2cccc(F)c2)c1-c1ccnc(NC(=O)c2cccc(Cl)c2)n1 [IIIA-45]
0.1 to 1 µM | COc1ccc(C(=O)Nc2nccc(-c3c(-c4ccccc4)noc3C)n2)cc1OC [IIIA-8]
0.1 to 1 µM | COc1cc(OC)cc(C(=O)Nc2nccc(-c3c(-c4cccc(OCc5ccccc5)c4)noc3C)n2)c1 [IIIA-33]
0.1 to 1 µM | Cc1ccc(C(=O)Nc2nccc(-c3c(-c4c(F)cccc4F)noc3C)n2)cc1 [IIIA-70]
< 0.1 µM | Cc1onc(-c2ccccc2)c1-c1ccnc(NC(=O)c2cccc(C#N)c2)n1 [IIIA-43]
< 0.1 µM | Cc1onc(-c2ccccc2)c1-c1ccnc(Nc2ccc(S(C)(=O)=O)cc2)n1 [IIA-63]
< 0.1 µM | Cc1onc(-c2ccccc2)c1-c1ccnc(Nc2cccc3ccccc23)n1 [IIAA-13]
< 0.1 µM | Cc1onc(C(C)(C)C)c1-c1ccnc(Nc2ccccc2)n1 [IIA-90]
< 0.1 µM | Cc1onc(-c2ccccc2)c1-c1ccnc(Nc2cccc(C(=O)O)c2)c1 [IIA-43]
< 0.1 µM | Cc1onc(-c2ccccc2)c1-c1ccnc(NC(=O)c2cccc([N+](=O)[O-])c2)n1 [IIIA-74]
< 0.1 µM | Cc1onc(-c2ccccc2)c1-c1ccnc(N[C@H]2CC[C@H](O)CC2)n1 [IIAA-36]
< 0.1 µM | COc1ccc2cc(Nc3nccc(-c4c(-c5c(F)cccc5F)noc4C)n3)ccc2c1 [IIAA-14]
< 0.1 µM | CCOCc1onc(-c2ccc(F)cc2)c1-c1ccnc(NC2CCCCC2)n1 [XIA-48]
< 0.1 µM | Fc1ccc(-c2noc(COCc3ccccc3)c2-c2ccnc(NCCc3ccccn3)n2)cc1 [XIA-53]
< 0.1 µM | Cc1onc(-c2cccc(F)c2)c1-c1ccnc(Nc2ccccc2)n1 [IIA-66]
< 0.1 µM | Cc1onc(-c2c(F)cccc2F)c1-c1ccnc(Nc2ccc(F)cc2)n1 [IIA-95]
< 0.1 µM | COc1ccc(Nc2cc(-c3c(-c4ccccc4)noc3C)ccn2)cc1 [IIA-47]

Ki | Compound
< 0.1 µM | CCOC(=O)c1cccc(Nc2nccc(-c3c(-c4ccccc4)noc3C)n2)c1 [IIA-130]
< 0.1 µM | Cc1onc(-c2ccccc2)c1-c1ccnc(Nc2ccc(F)cc2)n1 [IIA-42]
< 0.1 µM | Cc1onc(-c2ccccc2)c1-c1ccnc(Nc2ccc(C(=O)O)cc2)c1 [IIA-53]
< 0.1 µM | Cc1onc(-c2ccccc2)c1-c1ccnc(Nc2cccc(CO)c2)c1 [IIA-134]
< 0.1 µM | Cc1cc(Nc2nccc(-c3c(-c4ccccc4)noc3C)n2)ccc1C#N [IIA-38]
< 0.1 µM | Cc1onc(-c2ccccc2)c1-c1ccnc(NC2Cc3ccccc3C2)n1 [IIAA-25]
< 0.1 µM | Cc1onc(-c2ccccc2)c1-c1ccnc(Nc2ccccc2)n1 [IIA-1, [4-(5-Methyl-3-phenyl-isoxazol-4-yl)-pyrimidin-2-yl]-phenyl-amine]
< 0.1 µM | COC(=O)c1ccc(Nc2cc(-c3c(-c4ccccc4)noc3C)ccn2)cc1 [IIA-64]
< 0.1 µM | COc1ccc(Nc2nccc(-c3c(-c4ccccc4)noc3C)n2)c(C)c1 [IIA-61]
< 0.1 µM | CSc1cccc(Nc2nccc(-c3c(-c4ccccc4)noc3C)n2)c1 [IIA-37]
< 0.1 µM | Cc1onc(-c2ccccc2)c1-c1ccnc(Nc2ccc(N(C)C)cc2)c1 [IIA-98]
< 0.1 µM | COC(=O)c1ccc2cc(Nc3nccc(-c4c(-c5ccccc5)noc4C)n3)ccc2c1 [IIAA-16]
< 0.1 µM | Cc1onc(-c2ccccc2)c1-c1ccnc(NC(=O)c2cccs2)n1 [IIIA-15]
< 0.1 µM | Cc1onc(-c2c(F)cccc2F)c1-c1ccnc(Nc2cccc(C#N)c2)n1 [IIA-92]
< 0.1 µM | Cc1onc(-c2c(F)cccc2F)c1-c1ccnc(Nc2ccccc2)n1 [IIA-60]
< 0.1 µM | Cc1ccccc1-c1noc(C)c1-c1ccnc(Nc2ccc(C#N)c(F)c2)n1 [IIA-105]
< 0.1 µM | Cc1onc(-c2ccccc2)c1-c1ccnc(Nc2ccc(F)cc2F)n1 [IIA-56]
